Test results published in ChEMBL document CHEMBL3044780, “Simple and Rapid Screening Method for Photosystem II Inhibitory Herbicides Using Photoautotrophically Cultured Plant Cells with Chlorophyll Fluorescence Monitoring” (Biosci Biotechnol Biochem, 1993).

What was measured:
[1] = test system: Vigna radiata var. radiata; assay: Herbicidal activity against Vigna radiata var. radiata assessed per 100 m'2 after 10 days by greenhouse pot test; type: functional
[2] = Lipophilicity, log P of the compound; type: physicochemical; settings: octanol/water

Row | Compound | pLD50 [1] | logP [2]
1 | CN(C)C(=O)Nc1ccc(C#N)cc1 | 0.63 | 0.97
2 | CN(C)C(=O)Nc1ccc(I)cc1 | 1.75 | 2.36
3 | CN(C)C(=O)Nc1ccc(Br)cc1 | 1.86 | 2.07
4 | CN(C)C(=O)Nc1ccc(O)cc1 | <0.4 | 0.37
5 | CN(C)C(=O)Nc1cccc(F)c1 | 1.76 | 1.37
6 | CN(C)C(=O)Nc1cccc(Cl)c1 | 2.16 | 2.33
7 | COc1cccc(NC(=O)N(C)C)c1 | 1.15 | 1.22
8 | CN(C)C(=O)Nc1cccc([N+](=O)[O-])c1 | <0.4 | 1.33
9 | CN(C)C(=O)Nc1cccc(C#N)c1 | <0.4 | 0.98
10 | CN(C)C(=O)Nc1cccc(O)c1 | <0.4 | 
11 | CN(C)C(=O)Nc1ccc(F)cc1 | 1.67 | 1.13
12 | Cc1ccc(NC(=O)N(C)C)cc1 | 1.21 | 1.41
13 | COc1ccc(NC(=O)N(C)C)cc1 | 1.61 | 1.02
14 | CN(C)C(=O)Nc1ccc(C(F)(F)F)cc1 | 1.45 | 2.31
15 | CN(C)C(=O)Nc1ccc([N+](=O)[O-])cc1 | <0.4 | 1.43
16 | Cc1cccc(NC(=O)N(C)C)c1 |  | 1.46
17 | CN(C)C(=O)Nc1ccc(Cl)c(Cl)c1 [DCMU] | 2.75 | 
18 | CN(C)C(=O)Nc1ccccc1 [FENURON] | 1.54 | 
19 | CN(C)C(=O)Nc1cccc(C(F)(F)F)c1 [FLUOMETURON] | 1.3 | 2.2
20 | CC(C)c1ccc(NC(=O)N(C)C)cc1 [ISOPROTURON] | 1.92 | 2.87
21 | CN(C)C(=O)Nc1ccc(Cl)cc1 [MONURON] | 2.01 | 1.99
